# Key:
# [1] = tested on: Gal8 and Gal9; experiment: Galectin puncta formation by high-content microscopy in HeLa cells; type: cell-based; conditions: HeLa cells overexpressing GFP-Gal8 or GFP-Gal9, 100 μM, 1 h full medium
# Method: (A) Analysis of the puncta formation of galectins in response to GPN. HeLa cells overexpressing YFP-fused with the indicated galectins were treated with 100 μM GPN or without (Ctrl) in full medium for 1 h and galectin puncta were quantified by HC. […] White masks, algorithm defined cell boundaries (primary objects); green masks, computer-identified galectins puncta (target objects). Data, means±SEM, n≥3 independent experiments (500 primary objects counted per well; ≥5 wells/sample per each experiment); *p<0.05, **p<0.01, † p≥0.05, ANOVA. (B) Immunoprecipitation analysis of the interactions between galectins and mTOR or RagA GTPase. HEK293T cells overexpressing FLAG-tagged galectins were subjected to anti-FLAG immunoprecipitation followed by immunoblotting for endogenous mTOR or RagA. (C) Immunoprecipitation analysis of interactions between Gal8 and mTOR protein complexes in response to GPN treatment. […] Biotinylated proteins from HEK293T cell expressing APEX2-vector or APEX2-Gal8, after GPN and biotin phenol (BP) treatment were affinity-enriched by binding to streptavidin-beads, and samples were analyzed by immunoblotting analysis for endogenous RagA, p14, mTOR or Raptor. […]
# (A) HC analysis of the puncta of galectins in response to chloroquine, Bafilomycin A1 and GPN. HeLa cells overexpressing GFP-Gal8 or GFP-Gal9 were treated with 100 μM chloroquine (CQ), […] (BAF) or 100 μM GPN in full medium for 1 h, and the puncta of GFP-Gal8 or GFP-Gal9 were quantified by HC. […] Data, means±SEM, n≥3 independent experiments (500 primary objects counted per well; ≥5 wells/sample per each experiment), † p≥0.05, **p<0.01, ANOVA. […] HeLa cells expressing GFP-Gal8 were treated with 100 μM GPN in full medium for 1 h, and the overlap between GFP-Gal8 and LAMP2 were quantified by HC. […] Data, means±SEM, n≥3 independent experiments (500 primary objects counted per well; ≥5 wells/sample per each experiment), **p<0.01, ANOVA. […]
# [2] = tested on: AMPK; experiment: AMPK activation by immunoblotting of phosphorylated AMPKα, ACC and ULK1 in HEK293A cells; type: cell-based; conditions: Gal9 KO HEK293A, 1 μM oligomycin 1 h
# [3] = molecular target: T1, TAK1 (Homo sapiens, UniProt O43318); experiment: Co-IP of FLAG-tagged galectins with GFP-tagged TAK1 in HEK293T cells; type: binding; conditions: HEK293T overexpressing FLAG-tagged galectins and GFP-TAK1
# T1 sequence (O43318 1-606): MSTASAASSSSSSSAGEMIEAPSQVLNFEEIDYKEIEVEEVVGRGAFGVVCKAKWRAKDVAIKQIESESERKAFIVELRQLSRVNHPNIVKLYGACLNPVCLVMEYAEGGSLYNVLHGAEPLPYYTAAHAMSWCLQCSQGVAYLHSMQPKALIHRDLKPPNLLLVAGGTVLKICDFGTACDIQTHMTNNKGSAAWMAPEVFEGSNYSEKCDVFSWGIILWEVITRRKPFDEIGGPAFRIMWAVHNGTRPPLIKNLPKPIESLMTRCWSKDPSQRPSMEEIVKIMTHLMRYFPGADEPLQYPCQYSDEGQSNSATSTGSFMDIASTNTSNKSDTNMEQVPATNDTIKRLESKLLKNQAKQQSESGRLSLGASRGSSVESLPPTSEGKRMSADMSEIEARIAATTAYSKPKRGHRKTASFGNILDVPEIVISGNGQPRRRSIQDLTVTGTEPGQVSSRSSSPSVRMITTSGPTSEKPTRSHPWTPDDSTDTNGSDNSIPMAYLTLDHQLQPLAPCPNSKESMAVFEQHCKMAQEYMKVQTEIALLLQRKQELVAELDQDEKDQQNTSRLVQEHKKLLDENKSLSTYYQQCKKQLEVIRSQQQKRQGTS
# Method: (A) Analysis of the activation of AMPK in wildtype (WT) and the complementation of Gal9 in Gal9-knockout (Gal9KO) HEK293A cells treated with 100 μM GPN in full medium for 1 h. AMPK activity was monitored by immunoblotting analysis of AMPKα (T172) and acetyl-CoA carboxylase (ACC, S79) phosphorylation (phosphorylated AMPKα (T172) and ACC (S79) relative to total AMPKα and ACC respectively). (B) HEK293T cells transfected with scrambled siRNA (Scr) or Gal9 siRNA (Gal9KD) were treated with 2 mM LLOMe in full medium for 1 h, and the cell lysates were analyzed for phosphorylation of indicated proteins. Data, means±SEM, n=3, *p<0.05, ANOVA. (C) HEK293T cells overexpressing FLAG-Gal9 were treated with 2 mM LLOMe in full medium for 1 h. Cell lysates were analyzed for the indicated proteins. Data, means±SEM, n=3, *p<0.05, ANOVA. (D) Immunoprecipitation analysis of the interactions between galectins and TAK1. HEK293T cells overexpressing FLAG-tagged galectins and GFP-tagged TAK1 were subjected to anti-FLAG immunoprecipitation followed by immunoblotting for GFP-tagged TAK1. (E) Schematic diagram of Gal9 domains and deletion constructs. (F) HEK293T cells overexpressing FLAG-tagged full-length or truncated Gal9 and GFPAMPK were subjected to anti-FLAG immunoprecipitation, followed by immunoblotting for GFP-AMPK. (G) HEK293T cells overexpressing FLAG-tagged full-length or truncated Gal9 and GFP-TAK1 were subjected to anti-FLAG immunoprecipitation, followed by immunoblotting for GFP-TAK1. (H) Analysis of the activation of AMPK in HEK293T cells subjected to knockdowns as indicated treated with 100 μM GPN in full medium for 1 h. AMPK activity was monitored by immunoblotting analysis of AMPKα (T172) and acetyl-CoA carboxylase (ACC, S79) phosphorylation (phosphorylated AMPKα (T172) and ACC (S79) relative to total AMPKα and ACC respectively). Cells transfected with scrambled siRNA were as control (Scr). […]
# [4] = tested on: mTOR, Raptor, RagA, p14; experiment: APEX2 proximity biotinylation with streptavidin enrichment and immunoblotting in HEK293T cells; type: cell-based; conditions: APEX2-galectin fusions
# Method: (A) Analysis of the puncta formation of galectins in response to GPN. HeLa cells overexpressing YFP-fused with the indicated galectins were treated with 100 μM GPN or without (Ctrl) in full medium for 1 h and galectin puncta were quantified by HC. […] White masks, algorithm defined cell boundaries (primary objects); green masks, computer-identified galectins puncta (target objects). Data, means±SEM, n≥3 independent experiments (500 primary objects counted per well; ≥5 wells/sample per each experiment); *p<0.05, **p<0.01, † p≥0.05, ANOVA. (B) Immunoprecipitation analysis of the interactions between galectins and mTOR or RagA GTPase. HEK293T cells overexpressing FLAG-tagged galectins were subjected to anti-FLAG immunoprecipitation followed by immunoblotting for endogenous mTOR or RagA. (C) Immunoprecipitation analysis of interactions between Gal8 and mTOR protein complexes in response to GPN treatment. THP-1 cells not treated or treated with 100 μM GPN in full medium for 1 h were subjected to immunoprecipitation with anti-Gal8 antibody, followed by immunoblotting for endogenous RagA, p14, mTOR or Raptor. (D) Analysis of the proximity of Gal8 to mTOR and other proteins in mTOR complexes in response to GPN. Biotinylated proteins from HEK293T cell expressing APEX2-vector or APEX2-Gal8, after GPN and biotin phenol (BP) treatment were affinity-enriched by binding to streptavidin-beads, and samples were analyzed by immunoblotting analysis for endogenous RagA, p14, mTOR or Raptor. Data, means±SEM, (n=3), **p<0.01, ANOVA. (E) Immunoprecipitation analysis of the interactions between Gal8 and RagA GTPase and its mutants. Lysates of HEK293T cells overexpressing FLAG-Gal8 and HA-tagged RagA proteins (RagAWT, RagAT21L or RagAQ66L) were subjected to anti-FLAG immunoprecipitation, followed by immunoblotting for HA-tagged RagA proteins. (F) Immunoprecipitation analysis of the interactions between Gal8 and RagC GTPase and its mutants. HEK293T cells overexpressing FLAG-Gal8 and HA-tagged RagC proteins (RagCWT, RagCS75L or RagCQ120L) lysates were subjected to anti-FLAG immunoprecipitation, followed by immunoblotting for HA-tagged RagC proteins.
# HEK293T cells transfected with pJJiaDEST-APEX2 or pJJiaDEST-APEX2-Gal8 were incubated with 100 μM GPN (Cayman Chemicals) in full medium for 1 h (confluence of cells remained at 70-80%). Cells were next incubated in 500 μM biotin-phenol (AdipoGen) in full medium for the last 30 min of GPN incubation. A 1 min pulse with 1 mM H2O2 at room temperature was stopped with quenching buffer (10 mM sodium ascorbate, 10 mM sodium azide and 5 mM Trolox in Dulbecco's Phosphate Buffered Saline (DPBS)). All samples were washed twice with quenching buffer, and twice with DPBS.
# For immunoblotting analysis, cell pellets were lysed with 500 μL ice-cold RIPA lysis buffer (ThermoFisher Scientific) with protease inhibitor cocktail (Roche), 1 mM PMSF (sigma), 10 mM sodium ascorbate, 10 mM sodium azide and 5 mM Trolox, gently pipetted and then the incubated for 30 min. The lysates were clarified by centrifugation at 13,000 rpm for 5 min, followed by measuring protein concentrations using a Pierce BCA Protein Assay kit, with freshly made bovine serum albumin (BSA) solutions as standards. Streptavidin-coated magnetic beads (ThermoFisher Scientific) were washed with RIPA lysis buffer. 3 mg of each sample was mixed with 100 μL of streptavidin beads. […] 15 μL of each sample was separated by SDS-PAGE and analyzed by Western blot using indicated antibodies.
# [5] = tested on: AMPKα; experiment: Co-IP of FLAG-tagged galectins with endogenous AMPKα in HEK293T cells; type: binding; conditions: HEK293T overexpressing FLAG-tagged galectins
molecule,measurement,setting,value
"CO/C1=C\C(C)=C\[C@@H](C)[C@@H](O)[C@@H](C)C/C(C)=C/C=C/[C@H](OC)[C@@H]([C@@H](C)[C@@H](O)[C@H](C)[C@@]2(O)C[C@@H](O)[C@H](C)[C@@H](C(C)C)O2)OC1=O [Bafilomycin A 1, Bafilomycin A1]",Gal8 and Gal9 puncta formation,[1],not upon treatment
CCN(CC)CCCC(C)Nc1ccnc2cc(Cl)ccc12 (stereo not drawn) [chloroquine],Gal8 and Gal9 puncta formation,[1],not upon treatment
CC[C@H]1/C=C/C=C/C[C@@H](C)[C@H](O)[C@@](C)(O)C(=O)[C@@H](C)[C@H](O)[C@@H](C)C(=O)[C@@H](C)[C@H](O)[C@@H](C)/C=C/C(=O)O[C@@H]2[C@H](C)[C@H](CC1)O[C@]1(CC[C@H](C)[C@H](C[C@@H](C)O)O1)[C@H]2C [oligomycin],AMPK phosphorylation in Gal9 KO cells,[2],increased AMPK phosphorylation
"Gal3: cytosolic lectin, galectin-3, used as comparator",interaction with TAK1,[3],not
same,"mTOR, Raptor and RagA found in the proximity of the galectin",[4],not in the proximity
same,AMPKα in complexes (co-IP) with galectin,[5],not detected

# Source: patent US20210069295A1, “GALECTINS CONTROL MTOR IN RESPONSE TO ENDOMEMBRANE DAMAGE AND PROVIDE A MECHANISM AND TARGET FOR THE TREATMENT OF AUTOPHAGY-RELATED DISEASES” (STC. UNM, priority 2017, published 2021)
